Assay results from ChEMBL document CHEMBL1131750, “A substrate combinatorial array for caspases” (Bioorg Med Chem Lett, 1999).
Peptide text beside a SMILES is read from it. * marks the point of attachment. AMC = Cc1cc(=O)oc2cc(N*)ccc12

Experiments:
Format in all cases: ADME
[1] = Km value of Ac-YVAD-AMC substrate for compound
[2] = Kinetic Constant of Ac-YVAD-AMC for compound
[3] = Vmax value of Ac-YVAD-AMC substrate for compound
[4] = Kinetic Constant of Ac-WEAD-AMC for compound
[5] = Kinetic Constant of Ac-WVAD-AMC for compound

- Km [1]: 20 µM
- Vmax / Km [2]: 53 FU min-1 uM-1
- Vmax [3]: 1060 FU uM-1
- Km [4]: 9 µM
- Vmax [4]: 1840 FU uM-1
- Vmax / Km [4]: 204 FU min-1 uM-1
- Km [5]: 27 µM
- Vmax [5]: 1300 FU uM-1
- Vmax / Km [5]: 48 FU min-1 uM-1
SMILES: CC(=O)NCC(=O)NCC(=O)N[C@@H](C)C(=O)N[C@@H](CC(=O)O)C(=O)Nc1ccc2c(C)cc(=O)oc2c1 (Ac-GGAD-{AMC})
